The values below are quoted from earlier work in patent US6350444B1, “Gene therapy for pulmonary edema using adenovirus vectors encoding Na,K-ATPase” (Edema Clearance, Inc., priority 1998, dated 2002).

The subject of series [1] is isolated rat lungs.
In series [2] the target is rat α1 subunit (Rattus norvegicus, UniProt P06685). The following applies: read-out: IC50 of ouabain.

For `N=C(N)NC(=O)c1nc(Cl)c(N)nc1N` [amiloride], in series [1], the lung liquid clearance result is listed as “decreased”.
For the molecule `C[C@@H]1O[C@@H](O[C@H]2C[C@@H](O)[C@]3(CO)[C@H]4[C@H](O)C[C@]5(C)[C@@H](C6=CC(=O)OC6)CC[C@]5(O)[C@@H]4CC[C@]3(O)C2)[C@H](O)[C@H](O)[C@H]1O` [ouabain], the lung liquid clearance entry in series [1] is “decreased”. Further, in series [2], the IC50 (usually the concentration at which inhibition is half-maximal) was 1000 µM.
